Reference: US8895761B2, “4-phenylpyrane-3,5-diones, 4-phenylthiopyrane-3,5-diones and 2-phenylcyclohexane-1,3,5-triones as herbicides” (Syngenta Limited, priority 2007, dated 2014)

Key:
Assay type in all cases: in vivo
[1] = system: Alopecurus myosuroides (ALOMY); assay: Pre-emergence herbicidal glasshouse test, Alopecurus myosuroides; conditions: rate 250 g/ha, evaluated after 13 days, scale 100 = total damage to plant, 0 = no damage; for pest or weed control at 250 g/ha: Alopecurus myosuroides, 312 h
Outline: (§1)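 Pots, standard soil; spray at day 1 (pre-em) or day 8 (post-em). Formulation: acetone/water 50:50 + 0.5% Tween 20, diluted into aqueous spray. Glasshouse 24/16° C., 14 h light, 65% RH, watering twice daily. Scored at 13 days: 0 = no damage up to total plant damage.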

Setaria faberi (SETFA) [2] = assay: Post-emergence herbicidal glasshouse test, Setaria faberi; conditions: Setaria faberi, 312 h, rate 250 g/ha, evaluated after 13 days, scale 100 = total damage to plant, 0 = no damage
Experimental: (§2) Seeds of a variety of test species were sown in standard soil in pots. After cultivation for one day (pre-emergence) or after 8 days cultivation (post-emergence) under controlled conditions in a glasshouse (at 24/16° C., day/night; 14 hours light; 65% humidity), the plants were sprayed with an aqueous spray solution derived from the formulation of the technical active ingredient in acetone/water (50:50) solution containing 0.5% Tween 20 (polyoxyethelyene sorbitan monolaurate, CAS RN 9005-64-5). The test plants were then grown in a glasshouse under controlled conditions in a glasshouse (at 24/16° C., day/night; 14 hours light; 65% humidity) and watered twice daily. After 13 days for pre and post-emergence, the test was evaluated ([…] to plant; 0=no damage to plant).
(§3) Setaria faberi (SETFA), Lolium perenne (LOLPE), Alopecurus myosuroides (ALOMY), Echinochloa crus-galli (ECHCG) and Avena fatua (AVEFA).

Avena fatua (AVEFA) [3] = assay: Post-emergence herbicidal glasshouse test, Avena fatua; conditions: Avena fatua, 312 h, rate 250 g/ha, evaluated after 13 days, scale 100 = total damage to plant, 0 = no damage
Outline: as §1

[4] = system: Echinochloa crus-galli (ECHCG); assay: Post-emergence herbicidal glasshouse test, Echinochloa crus-galli; conditions: Echinochloa crus-galli, 312 h, rate 250 g/ha, evaluated after 13 days, scale 100 = total damage to plant, 0 = no damage
Outline: as §1

[5] = system: Alopecurus myosuroides (ALOMY); assay: Post-emergence herbicidal glasshouse test, Alopecurus myosuroides; conditions: Alopecurus myosuroides, 312 h, rate 250 g/ha, evaluated after 13 days, scale 100 = total damage to plant, 0 = no damage
Outline: as §1

[6] = system: Echinochloa crus-galli (ECHCG); assay: Pre-emergence herbicidal glasshouse test, Echinochloa crus-galli; conditions: Echinochloa crus-galli, 312 h, rate 250 g/ha, evaluated after 13 days, scale 100 = total damage to plant, 0 = no damage
Outline: as §1

Avena fatua (AVEFA) [7] = assay: Pre-emergence herbicidal glasshouse test, Avena fatua; conditions: Avena fatua, 312 h, rate 250 g/ha, evaluated after 13 days, scale 100 = total damage to plant, 0 = no damage
Outline: as §1

Setaria faberi (SETFA) [8] = assay: Pre-emergence herbicidal glasshouse test, Setaria faberi; conditions: rate 250 g/ha, evaluated after 13 days, scale 100 = total damage to plant, 0 = no damage; for pest or weed control at 250 g/ha: Setaria faberi, 312 h
Experimental: as §2, §3

Row | Compound | pest or weed control at 250 g/ha [1] [%] | pest or weed control at 250 g/ha (Setaria faberi (SETFA) [2]) [%] | pest or weed control at 250 g/ha (Avena fatua (AVEFA) [3]) [%] | pest or weed control at 250 g/ha [4] [%] | pest or weed control at 250 g/ha [5] [%] | pest or weed control at 250 g/ha [6] [%] | pest or weed control at 250 g/ha (Avena fatua (AVEFA) [7]) [%] | pest or weed control at 250 g/ha (Setaria faberi (SETFA) [8]) [%] | damage to plant ALOMY, pre-emergence activity [1] | damage to plant SETFA, pre-emergence activity (Setaria faberi (SETFA) [8])
1 | CCc1cc(-c2ccc(C)cc2)cc(CC)c1C1=C(O)[C@@]2(C)CC[C@H](O2)C1=O (racemic) [Compound A-12] | 30 | 100 | 0 | 100 | 70 | 70 | 20 | 80 | – | –
2 | CCc1cc(-c2ccc(Cl)c(F)c2)ccc1C1=C(O)[C@@]2(C)CC[C@H](O2)C1=O (racemic) [Compound A-24] | 70 | 100 | 80 | 100 | 90 | 100 | 60 | 90 | – | –
3 | CCc1cc(-c2c(F)cc(Cl)cc2F)ccc1C1=C(O)[C@@]2(C)CC[C@H](O2)C1=O (racemic) [Compound A-27] | 20 | 100 | 70 | 100 | 90 | 40 | 0 | 30 | – | –
4 | CCc1cc(-c2ccc(Cl)c(F)c2Cl)ccc1C1=C(O)[C@@]2(C)CC[C@H](O2)C1=O (racemic) [Compound A-29] | 30 | 100 | 60 | 100 | 90 | 40 | 50 | 50 | – | –
5 | CCc1cc(-c2ccc(Cl)c(F)c2F)ccc1C1=C(O)[C@@]2(C)CC[C@H](O2)C1=O (racemic) [Compound A-30] | 0 | 90 | 0 | 50 | 30 | 0 | 0 | 0 | – | –
6 | CCc1cc(-c2ccc(Cl)c(Cl)c2F)ccc1C1=C(O)[C@@]2(C)CC[C@H](O2)C1=O (racemic) [Compound A-31] | 30 | 100 | 40 | 100 | 90 | 50 | 30 | 60 | – | –
7 | CCc1cc(-c2ccc(Cl)cc2)ccc1C1=C(OC(C)=O)[C@@H]2CC[C@@](C)(O2)C1=O (racemic) [Compound D-1] | 60 | 100 | 80 | 100 | 90 | 70 | 40 | 80 | – | –
8 | Cc1cc(-c2ccccc2)cc(C)c1C1=C(O)C(C)(C)OC(C)(C)C1=O [Compound A-1] | 30 | 80 | 0 | 100 | 50 | 70 | 40 | 90 | – | –
9 | Cc1cc(-c2ccccc2)cc(C)c1C1=C(O)[C@@]2(C)C=C[C@H](O2)C1=O [Compound A-2] | – | 80 | 0 | 100 | 90 | 70 | 20 | – | 50 | 60
